Laboratory results reported in PubChem BioAssay (NCI).
Where “and” joins values, the source holds several entries; their conditions need not be identical. Identical values can stand only once.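 Dose response: 5 concentrations. Exposure: 48 h. Format: 96-well plates. Endpoint: linear interpolation; highest concentration if not reached. GI50: concentration for 50% inhibition of growth. Definition used: TGI = concentration required for complete inhibition of growth.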

How the values were obtained:
Test in all cases: inhibition of tumour cell growth, NCI panel, 48 h
OVCAR-3 ovarian = tested on: OVCAR-3 ovarian
UACC-257 melanoma = tested on: UACC-257 melanoma
HS 578T breast = tested on: HS 578T breast
SNB-19 CNS = tested on: SNB-19 CNS
HOP-92 NSCLC = tested on: HOP-92 NSCLC
BT-549 breast = tested on: BT-549 breast
MDA-MB-231 breast = tested on: MDA-MB-231 breast
786-0 renal = tested on: 786-0 renal
OVCAR-5 ovarian = tested on: OVCAR-5 ovarian
ACHN renal = tested on: ACHN renal

| SMILES | GI50 (OVCAR-3 ovarian) | TGI (OVCAR-3 ovarian) [µM] | TGI (UACC-257 melanoma) [µM] | GI50 (HS 578T breast) | TGI (HS 578T breast) | GI50 (SNB-19 CNS) | TGI (SNB-19 CNS) | GI50 (HOP-92 NSCLC) | TGI (HOP-92 NSCLC) | GI50 (BT-549 breast) | TGI (BT-549 breast) | GI50 (MDA-MB-231 breast) | TGI (MDA-MB-231 breast) | GI50 (786-0 renal) | TGI (786-0 renal) | TGI (OVCAR-5 ovarian) [µM] | TGI (ACHN renal) [µM] | GI50 (UACC-257 melanoma) [µM] | GI50 (OVCAR-5 ovarian) [µM] | GI50 (ACHN renal) [µM] |
| --- | --- | --- | --- | --- | --- | --- | --- | --- | --- | --- | --- | --- | --- | --- | --- | --- | --- | --- | --- | --- |
| CC(=O)OCC1OC(n2c(-c3ccc(Cl)cc3)ccc(C#N)c2=S)C(OC(C)=O)C(OC(C)=O)C1OC(C)=O (configuration not stated) | 98.7 µM and 48.1 µM | > 100 | > 100 | 5.34 µM and 23.8 µM | 67.3 µM and > 100 µM | 14.8 µM and 42.2 µM | 58.4 µM and > 100 µM | 3.96 µM and 22.2 µM | 18.8 µM and > 100 µM | 15.9 µM and 35 µM | 38.9 µM and > 100 µM | 10.2 µM and 42.9 µM | 47.1 µM and > 100 µM | 11.1 µM and 26.2 µM | 55.8 µM and 72.9 µM | > 100 | > 100 |  |  |  |
| CN(C)CCCOc1ccc(-c2ccc3ncc4c(c3c2)n(C2CCOCC2)c(=O)n4C)cn1 | 1.34 µM | 10.3 | 12.2 | 0.902 µM | 10.1 µM | 4.71 µM | 18.7 µM | 0.218 µM | 1.61 µM | 1.32 µM | 8.99 µM | 1.31 µM | 11.7 µM | 1.74 µM | 12.1 µM | 30.4 | 12.6 | 1.94 | 1.49 | 2 |
| CCCC(=O)NC1=C(Cl)C(=O)c2ccccc2C1=O |  | 8.01 | 14 |  | > 39.9 µM |  | 36.4 µM |  | 3.22 µM |  | 16.7 µM |  | 17.4 µM |  | 8.92 µM | 15.4 | 3.83 |  |  |  |
| CN[C@H]1C=C[C@@H]2/C=C(C)/C=C/[C@@H](C)[C@H]([C@H](C)[C@H](O)[C@@H](C)NC(C)=O)OC(=O)/C=C/C=C(C)\C=C\[C@]2(C)C1 |  | 46.7 | > 49 | 0.0597 µM and 0.0123 µM | > 49 µM | 0.0795 µM and 0.0718 µM | > 49 µM | < 0.001 µM and 0.0049 µM | 0.0661 µM and 0.0222 µM | 0.0049 µM | > 49 µM | 0.0049 µM | 9.97 µM | 0.00836 µM | > 49 µM | > 49 | > 49 |  | 10.3 | 0.0146 |
| CCCNNC(=O)/C=C/c1ccc(CNCCc2c(C)[nH]c3ccccc23)cc1 | 0.0433 µM | 0.161 | 0.627 | 0.0437 µM | 0.621 µM | 0.0768 µM | 2.1 µM | 0.00693 µM | 0.0744 µM | 0.28 µM | 4.71 µM | 0.0708 µM | 3.74 µM | 0.057 µM | 1.2 µM | 0.191 | 0.116 | 0.0323 | 0.0116 | 0.0284 |
| COc1ccc(-c2cc(=O)c3ccc(C)nc3[nH]2)cc1 | > 100 µM | > 100 | > 100 |  | > 100 µM |  | > 100 µM |  | > 100 µM |  | > 100 µM |  | > 100 µM | > 100 µM | > 100 µM | > 100 | > 100 |  |  |  |
| CN(C)CCCNC(=O)c1cc(NC(=O)c2cc(NC(=O)CCc3c[nH]c4ccccc34)cn2C)cn1C | > 100 µM | > 100 | > 100 | > 100 µM | > 100 µM | > 100 µM | > 100 µM | 72.8 µM | > 100 µM | > 100 µM | > 100 µM | > 100 µM | > 100 µM | > 100 µM | > 100 µM | > 100 | > 100 | > 100 | > 100 | > 100 |
